# Results taken from patent US11691972B2, “Compounds for targeted degradation of BRD9” (C4 Therapeutics, Inc., priority 2020, dated 2023).
# Target: T1, BRD9 (Homo sapiens, UniProt Q9H8M2)
# T1 sequence (Q9H8M2 1-597): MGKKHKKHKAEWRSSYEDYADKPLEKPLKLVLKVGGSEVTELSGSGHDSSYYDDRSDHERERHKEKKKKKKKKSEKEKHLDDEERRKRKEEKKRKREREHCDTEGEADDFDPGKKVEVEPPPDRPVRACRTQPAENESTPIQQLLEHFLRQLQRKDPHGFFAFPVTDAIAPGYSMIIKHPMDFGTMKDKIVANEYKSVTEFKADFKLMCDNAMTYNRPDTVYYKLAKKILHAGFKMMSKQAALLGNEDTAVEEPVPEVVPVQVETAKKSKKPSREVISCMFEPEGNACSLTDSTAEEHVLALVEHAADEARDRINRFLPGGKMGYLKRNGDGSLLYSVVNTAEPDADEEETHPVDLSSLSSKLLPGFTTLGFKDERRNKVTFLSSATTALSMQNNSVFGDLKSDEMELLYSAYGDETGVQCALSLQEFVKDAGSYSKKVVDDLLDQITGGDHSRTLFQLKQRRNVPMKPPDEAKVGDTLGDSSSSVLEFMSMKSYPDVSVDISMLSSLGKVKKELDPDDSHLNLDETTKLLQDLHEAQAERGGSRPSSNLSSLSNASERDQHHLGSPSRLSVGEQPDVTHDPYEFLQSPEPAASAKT
# Experiment: HiBiT BRD9 degradation assay in 293T.166 (BRD9-HiBiT) cells
# Assay type: cell-based
# Set-up: endogenously expressing BRD9 with HiBiT fusion tag via CRISPR; host or cells: 293T.166 (BRD9-HiBiT), also expressing LgBiT ectopically
# Conditions: Table 1; 293T.166 cells, 2.0 hours; class symbols; read-out: HiBiT-Degradation 293T.166 BRD9 2.0 hours (DC50)
# Method in brief: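 293T.166 cells carrying endogenous CRISPR BRD9-HiBiT and expressing LgBiT treated 2 h at 37° C. with compounds, 11-point half-log titration from 10 μM in duplicate. Remaining BRD9 measured as lytic HiBiT luminescence; untreated cells as negative control, no-reagent wells as positive control.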
row,DC50 [nM],Structure (SMILES)
1,< 100,COc1cc(-c2cn(C)c(=O)c3cnccc23)cc(OC)c1CN1CCC(N2CCN(c3ccc(NC4CCC(=O)NC4=O)cc3F)CC2)C(F)(F)C1 (stereo not drawn) [Compound 184]
2,< 100,COc1cc(-c2cn(C)c(=O)c3cnccc23)cc(OC)c1CN1CCC(N2CCN(c3ccc(NC4CCC(=O)NC4=O)cc3C(F)(F)F)CC2)C(F)(F)C1 (stereo not drawn) [Compound 185]
3,< 100,COc1cc(-c2cn(C)c(=O)c3cnccc23)cc(Cl)c1CN1CCC(N2CCN(c3ccc(NC4CCC(=O)NC4=O)cc3Cl)CC2)C(F)(F)C1 (stereo not drawn) [Compound 186]
4,< 100,COc1cc(-c2cn(C)c(=O)c(C)c2C)cc(OC)c1CN1CCC(N2CCN(c3ccc(NC4CCC(=O)NC4=O)cc3Cl)CC2)C(F)(F)C1 (stereo not drawn) [Compound 187]
5,< 100,COc1cc(-c2cn(C)c(=O)c3cnccc23)cc(OC)c1CN1CCC(N2CCN(c3ccc(NC4CCC(=O)NC4=O)cc3Cl)CC2)C(F)(F)C1 (stereo not drawn) [Compound 188]
6,< 100,COc1cc(-c2cn(C)c(=O)c3cnccc23)cc(F)c1CN1CCC(N2CCN(c3ccc(NC4CCC(=O)NC4=O)cc3F)CC2)C(F)(F)C1 (stereo not drawn) [Compound 189]
7,< 100,COc1cc(-c2cn(C)c(=O)c(C)c2C)cc(Cl)c1CN1CCC(N2CCN(c3ccc(NC4CCC(=O)NC4=O)cc3F)CC2)C(F)(F)C1 (stereo not drawn) [Compound 190]
8,< 100,COc1cc(-c2cn(C)c(=O)c(C)c2C)cc(F)c1CN1CCC(N2CCN(c3ccc(NC4CCC(=O)NC4=O)cc3F)CC2)C(F)(F)C1 (stereo not drawn) [Compound 191]
9,< 100,COc1cc(-c2cn(C)c(=O)c3ccccc23)cc(Cl)c1CN1CCC(N2CCN(c3ccc(NC4CCC(=O)NC4=O)cc3F)CC2)C(F)(F)C1 (stereo not drawn) [Compound 192]
10,< 100,Cn1cc(-c2ccc(CN3CCC(N4CCN(c5ccc(NC6CCC(=O)NC6=O)cc5F)CC4)C(F)(F)C3)c(OC(F)(F)F)c2)c2ccncc2c1=O (stereo not drawn) [Compound 193]
11,< 100,COc1cc(-c2cn(C)c(=O)c3cnccc23)cc(Cl)c1CN1CCC(N2CCN(c3ccc(NC4CCC(=O)NC4=O)nc3)CC2)C(F)(F)C1 (stereo not drawn) [Compound 194]
12,< 100,COc1cc(-c2cn(C)c(=O)c(C)c2C)cc(OC)c1CN1CCC(N2CCN(c3ccc(NC4CCC(=O)NC4=O)nc3)CC2)C(F)(F)C1 (stereo not drawn) [Compound 195]
13,< 100,COc1cc(-c2cn(C)c(=O)c(C)c2C)cc(Cl)c1CN1CCC(N2CCN(c3ccc(NC4CCC(=O)NC4=O)nc3)CC2)C(F)(F)C1 (stereo not drawn) [Compound 196]
14,< 100,"COc1cc(-c2cn(C)c(=O)c(C)c2C)cc(Cl)c1CN1CCC(C2CCN(c3ccc(NC4CCC(=O)NC4=O)cc3F)CC2)C(F)(F)C1 (stereo not drawn) [Compound 197, 3-[4-[4-[1-[[2-chloro-6-methoxy-4-(1,4,5-trimethyl-6-oxo-3-pyridyl)phenyl]methyl]-3,3-difluoro-4-piperidyl]-1-piperidyl]-3-fluoro-anilino]piperidine-2,6-dione]"
15,< 100,COc1cc(-c2cn(C)c(=O)c(C)c2C)cc(OC)c1CN1CCC(C2CCN(c3ccc(NC4CCC(=O)NC4=O)cc3F)CC2)C(F)(F)C1 (stereo not drawn) [Compound 198]
16,< 100,COc1cc(-c2cn(C)c(=O)c3cnccc23)cc(Cl)c1CN1CCC(C2CCN(c3ccc(NC4CCC(=O)NC4=O)cc3F)CC2)C(F)(F)C1 (stereo not drawn) [Compound 199]
17,< 100,COc1cc(-c2cn(C)c(=O)c3cnccc23)cc(Cl)c1CN1CCC(C2CCN(c3ccc(NC4CCC(=O)NC4=O)cc3Cl)CC2)C(F)(F)C1 (stereo not drawn) [Compound 200]
18,< 100,COc1cc(-c2cn(C)c(=O)c3cnccc23)cc(Cl)c1CN1CCC(N2CCC(c3ccc(NC4CCC(=O)NC4=O)cc3F)CC2)C(F)(F)C1 (stereo not drawn) [Compound 201]
19,< 100,COc1cc(-c2cn(C)c(=O)c3ccccc23)cc(Cl)c1CN1CCC(N2CCC(c3ccc(NC4CCC(=O)NC4=O)cc3F)CC2)C(F)(F)C1 (stereo not drawn) [Compound 202]
20,< 100,"COc1cc(-c2cn(C)c(=O)c3[nH]ncc23)cc(OC)c1CNc1ccc(CC2CCN(c3ccc(NC4CCC(=O)NC4=O)cc3)CC2)cc1 (stereo not drawn) [Compound 205, 3-[4-[4-[[4-[[2,6-dimethoxy-4-(6-methyl-7-oxo-1H-pyrazolo[3,4-c]pyridin-4-yl)phenyl]methylamino]phenyl]methyl]-1-piperidyl]anilino]piperidine-2,6-dione]"

row,DC50 [nM],Structure (SMILES)
1,< 100,"COc1cc(-c2cn(C)c(=O)c3[nH]ncc23)cc(OC)c1CN1CCc2cc(N3CCC(c4ccc(NC5CCC(=O)NC5=O)cc4)CC3)ccc2C1 (stereo not drawn) [Compound 206, 3-[4-[1-[2-[[2,6-dimethoxy-4-(6-methyl-7-oxo-1H-pyrazolo[3,4-c]pyridin-4-yl)phenyl]methyl]-3,4-dihydro-1H-isoquinolin-6-yl]-4-piperidyl]anilino]piperidine-2,6-dione]"
2,< 100,"COc1cc(-c2cn(C)c(=O)c3[nH]ncc23)cc(OC)c1Cc1ccc(CC(=O)N2CCC(c3ccc(NC4CCC(=O)NC4=O)cc3)CC2)cc1 (stereo not drawn) [Compound 207, 3-[4-[1-[2-[4-[[2,6-dimethoxy-4-(6-methyl-7-oxo-1H-pyrazolo[3,4-c]pyridin-4-yl)phenyl]methyl]phenyl]acetyl]-4-piperidyl]anilino]piperidine-2,6-dione]"
3,< 100,"COc1cc(-c2cn(C)c(=O)c(C)c2C)cc(Cl)c1C(=O)N1CCC(C2CCN(c3ccc(NC4CCC(=O)NC4=O)cc3F)CC2)CC1 (stereo not drawn) [Compound 208, 3-[4-[4-[1-[2-chloro-6-methoxy-4-(1,4,5-trimethyl-6-oxo-3-pyridyl)benzoyl]-4-piperidyl]-1-piperidyl]-3-fluoro-anilino]piperidine-2,6-dione]"
4,< 100,COc1cc(-c2cn(C)c(=O)c3cnccc23)cc(Cl)c1C(=O)N1CCC(C2CCN(c3ccc(NC4CCC(=O)NC4=O)cc3F)CC2)CC1 (stereo not drawn) [Compound 209]
5,< 100,Cn1cc(-c2ccc(C(=O)N3CCC(C4CCN(c5ccc(NC6CCC(=O)NC6=O)cc5F)CC4)CC3)c(OC(F)(F)F)c2)c2ccncc2c1=O (stereo not drawn) [Compound 211]
6,< 100,"Cc1c(-c2ccc(C(=O)N3CCC(C4CCN(c5ccc(NC6CCC(=O)NC6=O)cc5F)CC4)CC3)c(OC(F)(F)F)c2)cn(C)c(=O)c1C (stereo not drawn) [Compound 212, 3-[3-fluoro-4-[4-[1-[2-(trifluoromethoxy)-4-(1,4,5-trimethyl-6-oxo-3-pyridyl)benzoyl]-4-piperidyl]-1-piperidyl]anilino]piperidine-2,6-dione]"
7,< 100,COc1cc(-c2cn(C)c(=O)c3cnccc23)cc(F)c1C(=O)N1CCC(C2CCN(c3ccc(NC4CCC(=O)NC4=O)cc3F)CC2)CC1 (stereo not drawn) [Compound 215]
8,< 100,COc1cc(-c2cn(C)c(=O)c3[nH]ncc23)cc(Cl)c1C(=O)N1CCC(C2CCN(c3ccc(NC4CCC(=O)NC4=O)cc3F)CC2)CC1 (stereo not drawn) [Compound 216]
9,< 100,Cc1c(-c2ccc(C(=O)N3CCC(C4CCN(c5ccc(NC6CCC(=O)NC6=O)cc5F)CC4)CC3)c3[nH]ccc23)cn(C)c(=O)c1C (stereo not drawn) [Compound 217]
10,< 100,"COc1cc(-c2cn(C)c(=O)c(C)c2C)cc(Cl)c1C(=O)N1CCC(C2CCN(c3ccc(NC4CCC(=O)NC4=O)cn3)CC2)CC1 (stereo not drawn) [Compound 218, 3-[[6-[4-[1-[2-chloro-6-methoxy-4-(1,4,5-trimethyl-6-oxo-3-pyridyl)benzoyl]-4-piperidyl]-1-piperidyl]-3-pyridyl]amino]piperidine-2,6-dione]"
11,< 100,COc1cc(-c2cn(C)c(=O)c3[nH]ncc23)cc(Cl)c1C(=O)N1CCC(C2CCN(c3ccc(NC4CCC(=O)NC4=O)cn3)CC2)CC1 (stereo not drawn) [Compound 220]
12,< 100,COc1cc(-c2cn(C)c(=O)c3cnccc23)cc(Cl)c1C(=O)N1CCC(C2CCN(c3ccc(NC4CCC(=O)NC4=O)nc3)CC2)CC1 (stereo not drawn) [Compound 221]
13,< 100,COc1cc(-c2cn(C)c(=O)c3[nH]ncc23)cc(Cl)c1C(=O)N1CCC(C2CCN(c3ccc(NC4CCC(=O)NC4=O)nc3)CC2)CC1 (stereo not drawn) [Compound 222]
14,< 100,Cc1c(-c2ccc(C(=O)N3CCC(N4CCN(c5ccc(NC6CCC(=O)NC6=O)cc5F)CC4)C(F)(F)C3)c(OC(F)(F)F)c2)cn(C)c(=O)c1C (stereo not drawn) [Compound 223]
15,< 100,COc1cc(-c2cn(C)c(=O)c3cnccc23)cc(Cl)c1C(=O)N1CCC(N2CCN(c3ccc(NC4CCC(=O)NC4=O)cc3F)CC2)C(F)(F)C1 (stereo not drawn) [Compound 224]
16,< 100,COc1cc(-c2cn(C)c(=O)c3cnccc23)cc(OC)c1C(=O)N1CCC(N2CCN(c3ccc(NC4CCC(=O)NC4=O)cc3F)CC2)C(F)(F)C1 (stereo not drawn) [Compound 225]
17,< 100,COc1cc(-c2cn(C)c(=O)c3cnccc23)cc(F)c1C(=O)N1CCC(N2CCN(c3ccc(NC4CCC(=O)NC4=O)cc3F)CC2)C(F)(F)C1 (stereo not drawn) [Compound 226]
18,< 100,Cn1cc(-c2ccc(C(=O)N3CCC(N4CCN(c5ccc(NC6CCC(=O)NC6=O)cc5F)CC4)C(F)(F)C3)c(OC(F)(F)F)c2)c2ccncc2c1=O (stereo not drawn) [Compound 227]
19,< 100,COc1cc(-c2cn(C)c(=O)c3cnccc23)cc(Cl)c1C(=O)N1CCC(N2CCC(c3ccc(NC4CCC(=O)NC4=O)cc3)C(F)(F)C2)CC1 (stereo not drawn) [Compound 228]
